# Measured values taken from US10813886B2, “Methods and systems for improved bioavailability of active pharmaceutical ingredients including esomeprazole” (priority 2013, dated 2020).
# How the values were obtained:
# [1] = as the magnesium trihydrate, cited from earlier work
# [2] = human, in vivo
# From the text: Patients were selected from volunteers aged 18 to 65 years, inclusive, with a Body Mass Index (BMI) between […] inclusive and free from any significant diseases including cardiac, renal and gastrointestinal disease. […] The crossover design eliminated potential treatment effects on the outcome, as well as effectively allowing the subject to serve as their own control. Each dosing occasion was separated by a 7-14 day washout period. Fasting conditions represented an overnight fast of at least 10 hours and fed state was after a high calorie, high fat breakfast 30 minutes prior to dosing.
# The % EMT was quantified from human plasma according to methods based on the FDA Bioanalytical Method Validation Guide for Industry and the EMA Guideline on bioanalytical method validation (York Bioanalytical Solutions). Briefly, plasma samples were submitted to supported liquid extraction and liquid chromatography with tandem mass spectrometric detection (lower limit of quantification 5.00 ng/ml with a sample aliquot volume of 100 microliters). The analytes detected were esomeprazole, 5-hydroxyomeprazole, and omeprazole sulphone and were validated against commercial samples and calibration standards. […] Calibration samples were obtained commercially as follows: esomeprazole (Sigma-Aldrich), 5-hydroxyomeprazole, and omeprazole sulphone (Toronto Chemicals Inc.). Internal standards omeprazole d3, 5-hydroxyomeprazole d3 and omeprazole sulphone-d3 were also utilized (Toronto Chemicals Inc.). Plasma samples were stored at −20° C. Data was collected using Analyst software (Applied Biosystems-Sciex) in combination with Watson LIMS (Thermo Fisher Scientific); peak area ratios were used to generate calibration curves using regression functions.
# [3] = cited from earlier work
structure (smiles),measurement,setting,value
COc1ccc2nc([S@@+]([O-])Cc3ncc(C)c(OC)c3C)[nH]c2c1 [Esomeprazole],solubility in heptane,[1],insoluble
same,solubility in water,[1]; in water at 25° C.,1500 µg/mL
same,Intra-subject Coefficient of Variation of AUCinf,[2],40.85 CV %
same,Intra-subject Coefficient of Variation of AUCt,[2],83.08 CV %
same,Intra-subject Coefficient of Variation of Cmax,[2],97.51 CV %
same,stability in acid conditions,[3]; acid conditions,degrades
same,stability at pH 6.8,[3]; pH 6.8,stable
